Where two headings read alike, the source gives them in different places.
How the values were obtained:
[1] = target: HCV RNA-dependent RNA polymerase (UniProt P27958); experiment: Inhibitory activity against HCV RNA-dependent RNA polymerase (Experiment Example 1); type: biochemical, hepatitis C virus (HCV); details: Experimental example 1, poly(A) template, oligo(U)12 primer, 3H-UTP substrate, enzyme reaction 25° C. for 30 min
Text: Inhibitory Activity Against HCV RNA-Dependent RNA Polymerase
(1) Preparation of Hepatitis C Virus (HCV) RNA-Dependent RNA Polymerase
It was collected several cDNA clones of HCV RNA-dependent RNA polymerase from plasma of people infected with HCV, RNA-dependent RNA polymerase was expressed by using insect cell or E. coli from these clones. RNA-dependent RNA polymerase in cell extract was purified by anion-exchange chromatography, heparin-affinity chromatography, poly U-affinity chromatography, cation-exchange chromatography, gel filtration chromatography, and the like. The preparation was done at about 4° C. under low temperature condition, as solution dissolving enzyme was used Tris buffer (pH 7.5) containing ethylenediamine tetraacetic acid (1 mM), dithiothreitol (10 mM), and glycerol (20%). The purified enzyme was kept at 4° C. or −20° C. until it was used for assay.
(2) Method of HCV RNA-Dependent RNA Polymerase Assay
(1) In polypropylene vessel was added buffer I*^1)(10.5 μL) containing Tris-HCl (100 mM, pH 7.5), magnesium chloride (25 mM), dithiothreitol (5 mM), potassium chloride (125 mM), ethylenediamine tetraacetic acid (5 mM), and then were added poly(A)*^2) aqueous solution (100 μg/mL, 10.5 μL), oligo(U)12*^3) aqueous solution (10 μg/mL, 10.5 μL), and water (8 μL), and the mixture was mixed slowly.
*1) All of water used as experimental material in enzyme reaction were carried out inactivation treatment of Rnase with diethylpyrocarbonate. The inactivation treatment with diethylpyrocarbonate was carried out as follows, 1) diethylpyrocarbonate (0.1 g) was dissolved in de-ionized water (100 mL), 2) the solution was stood at 37° C. for 24 h, 3) kept in autoclave at 120° C. for 30 min.
*2) Poly(A) is single strand polynucleotide composed with only adenylic acid. It was used as template.
*3) Oligo(U)12 is single strand oligonucleotide composed with only 12 element of uridylic acid. It was used as primer.
(2) Next, to the mixture was added a solution (10.5 μL) of RNA-dependent RNA polymerase, and preincubation was carried out at 25° C. for 60 min.
(3) A solution (50 μL) preincubated described in (2) was added into 96-wells microtiter plate divided test compound (5.26 μL per well) dissolved with dimethylsulfoxide or water.
*4) UTP is uridine triphosphate. It was used as substrate.
(5) When the enzyme reaction was passed for 30 min, to the mixture was added a aqueous solution (50 mM, 50 μL) of ethylenediamine tetraacetic acid disodium and the enzyme reaction was stopped.
(6) Next, after all volume of sample of (5) was transferred on filter introduced diethylaminoethyl group (henceforth shortening as DEAE-filter mat) by using cell harvester, was carried the washing twice with sodium phosphate buffer (0.25 M, pH 7.0) for 10 sec and the washing once with deionized water for 10 sec.
(7) After the washing, DEAE-filter mat was dried at 95° C. for 15 min and sealed together with liquid scintillator (10 mL) into sample bag.
(8) Radioactivity was measured by using scintillation counter.
(9) The percentage of inhibition was calculated by replacing the measured value of radioactivity (unit; ccpm) into the following expression.
The percentage of inhibition=100−(the measured value in presence of test compound−the measured value in absence of enzyme)÷(the measured value in absence of test compound−the measured value in absence of enzyme)×100.
(10) The concentration of test compound inhibiting 50% (IC50) was obtained from the percentage of inhibition calculated in (9) and the used concentration of test compound inhibiting.
In case of the percentage of inhibition is A % when α μg/mL of the compound is used and the percentage of inhibition is B % when β μg/ml of the compound is used, IC50 was obtained from the following expression. Provided that it is theorized as A≧50>B. […]

[2] = target: T1, RNA-dependent RNA polymerase (RdRp) of bovine virus diarrhea virus (BVDV) (Bovine viral diarrhea virus, UniProt P19711); experiment: Inhibitory activity against BVDV RNA-dependent RNA polymerase (Experiment Example 2); type: biochemical; details: Experimental example 2; same way as experiment example 1
T1 construct: RNA-dependent RNA polymerase (RdRp) of bovine virus diarrhea virus (BVDV)
T1 sequence (P19711 3270-3988): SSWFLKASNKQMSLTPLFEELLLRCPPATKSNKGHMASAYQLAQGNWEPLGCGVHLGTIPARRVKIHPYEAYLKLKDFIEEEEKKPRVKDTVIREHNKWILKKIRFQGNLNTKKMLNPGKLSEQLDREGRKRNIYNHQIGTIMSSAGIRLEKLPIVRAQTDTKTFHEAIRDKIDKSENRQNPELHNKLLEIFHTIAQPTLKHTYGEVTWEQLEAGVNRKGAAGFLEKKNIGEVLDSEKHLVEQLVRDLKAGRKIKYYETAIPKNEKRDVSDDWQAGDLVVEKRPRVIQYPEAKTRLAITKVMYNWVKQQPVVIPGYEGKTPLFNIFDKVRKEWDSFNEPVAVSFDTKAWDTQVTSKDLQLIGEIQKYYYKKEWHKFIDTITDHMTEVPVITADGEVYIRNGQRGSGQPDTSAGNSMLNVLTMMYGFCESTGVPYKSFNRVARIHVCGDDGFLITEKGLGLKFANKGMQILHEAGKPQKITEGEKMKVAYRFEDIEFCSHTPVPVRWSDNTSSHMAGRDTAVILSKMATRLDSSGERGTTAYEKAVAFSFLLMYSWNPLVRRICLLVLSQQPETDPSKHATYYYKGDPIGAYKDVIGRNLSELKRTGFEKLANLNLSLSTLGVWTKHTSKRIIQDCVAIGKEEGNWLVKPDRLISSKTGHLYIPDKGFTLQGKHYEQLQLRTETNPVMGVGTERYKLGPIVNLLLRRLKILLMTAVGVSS
Text: Inhibitory Activity Against BVDV RNA-Dependent RNA Polymerase
Inhibitory activity against RNA-dependent RNA polymerase (RdRp) of bovine virus diarrhea virus (BVDV) was experimented too in the same way in experiment example 1.

[3] = read-out: IC50 for HCV RdRp (converted)

Row | SMILES | IC50 [1, 3] [µM] | IC50 [2] [µM] | melting point | IC50 ([1]; read-out: IC50 for HCV RdRp) [µM]
1 | O=C1NC(=S)S/C1=C(/O)c1ccco1 [Compound I-2, 5-[1-(Furan-2-yl)-1-hydroxy]methylene-2-thioxothiazolidin-4-one] | 3.96 | 79.2 | 230 to 235 °C (dec.) | 
2 | O=C1NC(=S)SC1=C(O)c1ncccn1 [Compound I-35, 5-[1-Hydroxy-1-(pyrimidin-2-yl)]methylene-2-thioxothiazolidin-4-one] | 5.85 | 142 | > 250 °C (dec.) | 
3 | O=C1NC(=S)SC1=C(O)c1ccno1 [Compound I-30, 5-[1-(Isoxazol-5-yl)1-hydroxy]methylene-2-thioxothiazolidin-4-one] | 29.8 | 140 | 195 to 202 °C (dec.) | 
4 | Cc1cnc(/C(O)=C2\SC(=S)NC2=O)o1 [Compound I-1, 5-[1-Hydroxy-1-(5-methyloxazol-2-yl)]methylene-2-thioxothiazolidin-4-one] |  | 10.3 | 243 to 245 °C (dec.) | 1.03
5 | Cc1cnoc1C(O)=C1SC(=S)NC1=O [Compound I-27, 5-[1-Hydroxy-1-(4-methylisoxazol-5-yl)]methylene-2-thioxothiazolidin-4-one] | 6.6 | 74.3 | 230 to 234 °C (dec.) | 
6 | Cc1ccc(C(O)=C2SC(=S)NC2=O)o1 [Compound I-22, 5-[1-Hydroxy-1-(5-methylfuran-2-yl)]methylene-2-thioxothiazolidin-4-one] | 20.3 | 153 | 195 to 198 °C (dec.) | 
7 | O=C1NC(=S)SC1=C(O)c1nc[nH]n1 [Compound I-34, 5-[1-Hydroxy-1-(1H-1,2,4-triazol-3-yl)]methylene-2-thioxothiazolidin-4-one] | 4.03 | 61.3 | 285 to 290 °C (dec.) | 
8 | O=C1NC(=S)SC1=C(O)c1cnccn1 [Compound I-36, 5-[1-Hydroxy-1-(pyrazin-2-yl)]methylene-2-thioxothiazolidin-4-one] | 31.8 | 159 | > 250 °C (dec.) | 
9 | O=C1NC(=S)SC1=C(O)c1nn[nH]n1 [Compound I-32, 5-[1-Hydroxy-1-(2H-tetrazol-5-yl)]methylene-2-thioxothiazolidin-4-one] | 14 | 161 | 188 to 193 °C (dec.) | 
10 | Cc1nnc(C(O)=C2SC(=S)NC2=O)o1 [Compound I-40, 5-[1-Hydroxy-1-(5-methyl-1,3,4-oxadiazol-2-yl)]methylene-2-thioxothiazolidin-4-one] | 8.22 | 21.8 | 230 to 237 °C (dec.) | 
11 | O=C1NC(=S)SC1=C(O)c1ccon1 [Compound I-29, 5-[1-(Isoxazol-3-yl)1-hydroxy]methylene-2-thioxothiazolidin-4-one] | 7.89 | 118 | 210 to 215 °C (dec.) | 
12 | O=C1NC(=S)SC1=C(O)c1ccccn1 [Compound I-37, 5-[1-Hydroxy-1-(pyridin-2-yl)]methylene-2-thioxothiazolidin-4-one] | 12.6 | 151 | > 250 °C (dec.) | 

Source: patent US6809101B2, “Compounds having anti-hepatitis C virus effect” (priority 2000, dated 2004)
